Reference: patent US20160030391A1, “METHODS AND COMPOSITIONS FOR IMPROVING COGNITIVE FUNCTION” (THE JOHNS HOPKINS UNIVERSITY, priority 2013, published 2016)
“Also recorded” adds a separate entry of the source.

Test system: reelin in Entorhinal Cortex (EC2)
Assay: reelin in situ hybridization in entorhinal cortex after chronic levetiracetam
Type: in vivo, rat
Details: levetiracetam 10 mg/kg/day, osmotic minipumps, four weeks (28 days), aged-impaired rats
Description: Under isoflurane anesthesia, memory-impaired aged rats were implanted subcutaneously in the intrascapular region with osmotic mini-pumps (ALZET, Durect Corporation, Cupertino, Calif.) with levetiracetam (10 mg/kg/day) or saline vehicle for four weeks prior to perfusion. Young rats, which served as controls, received either saline vehicle in mini-pumps or no implantation.
At the end of the 4-week treatment period, rats were anesthetized with isoflurane and perfused transcardiacally with 0.1 M phosphate buffer saline, followed by 4% paraformaldehyde in phosphate buffer. Brains were removed and post-fixed in paraformaldehyde overnight. The brains were then moved into 4% paraformaldehyde in phosphate buffer containing 16% sucrose. […]
Probe templates were synthesized as described in Haberman et al. (2008). […] The final probe was resuspended in RNase-free water and the specific activity was determined by scintillation counter.
In situ hybridization was carried out as described by Haberman et al., (2008). […] Slides were dried overnight, exposed to a phosphoimager screen, and quantified by using ImageQuant (GE Healthcare). Digital images were acquired of entorhinal cortical sections from the same levels for all animals and the subregion of interest was outlined and quantified. […]

In the case of `CC[C@@H](C(N)=O)N1CCCC1=O` [levetiracetam, (2S)-2-(2-oxopyrrolidin-1-yl)butanamide], the “levels of reelin in Entorhinal Cortex (EC2) (reelin mRNA expression)” value is reported as “significantly increased; also recorded: restores”.
